Values joined by “and” are separate entries in the source; they are usually repeats but may differ in a detail not shown here. Equal values may be shown once.

These results are taken from ChEMBL document CHEMBL5291721, “A preclinical secondary pharmacology resource illuminates target-adverse drug reaction associations of marketed drugs” (Nat Commun, 2023).

For experiment [1], the target named is T1, Gastrin/cholecystokinin type B receptor (Homo sapiens, UniProt P32239).
T1 sequence (P32239 whole entry): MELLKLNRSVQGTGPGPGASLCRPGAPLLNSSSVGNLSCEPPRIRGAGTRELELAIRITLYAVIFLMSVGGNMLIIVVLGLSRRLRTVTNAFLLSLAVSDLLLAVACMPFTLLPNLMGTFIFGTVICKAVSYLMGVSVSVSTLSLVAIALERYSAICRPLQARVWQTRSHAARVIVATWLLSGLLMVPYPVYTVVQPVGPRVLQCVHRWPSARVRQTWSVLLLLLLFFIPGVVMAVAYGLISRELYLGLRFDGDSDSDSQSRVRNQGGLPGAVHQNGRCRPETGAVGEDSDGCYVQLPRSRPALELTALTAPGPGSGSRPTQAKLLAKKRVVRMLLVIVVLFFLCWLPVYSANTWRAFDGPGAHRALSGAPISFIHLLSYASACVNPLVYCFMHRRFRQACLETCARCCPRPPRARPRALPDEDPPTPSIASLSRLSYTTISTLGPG

Another experiment concerns the target Mu-type opioid receptor (Homo sapiens, UniProt P35372). Put plainly: biochemical. It counts as functional.
The target in another experiment is T2, Endothelin-1 receptor (Homo sapiens, UniProt P25101).
T2 sequence (P25101 whole entry): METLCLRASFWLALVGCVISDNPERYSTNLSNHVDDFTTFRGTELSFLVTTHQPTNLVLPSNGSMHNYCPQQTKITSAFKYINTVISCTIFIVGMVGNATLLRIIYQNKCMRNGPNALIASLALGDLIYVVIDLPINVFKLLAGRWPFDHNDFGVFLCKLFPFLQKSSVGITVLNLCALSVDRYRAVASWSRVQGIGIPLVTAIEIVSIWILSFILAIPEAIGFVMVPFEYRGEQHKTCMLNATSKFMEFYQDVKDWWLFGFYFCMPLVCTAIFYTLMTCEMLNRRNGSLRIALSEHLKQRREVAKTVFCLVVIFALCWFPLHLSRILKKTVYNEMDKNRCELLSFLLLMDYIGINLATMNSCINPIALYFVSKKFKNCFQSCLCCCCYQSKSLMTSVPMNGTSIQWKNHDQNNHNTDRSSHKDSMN

The target in experiment [2] is Kappa-type opioid receptor (Homo sapiens, UniProt P41145).
The target of experiment [3] is Muscarinic acetylcholine receptor M3 (Homo sapiens, UniProt P20309).
Experiment [4] deals with T3, 5-hydroxytryptamine receptor 2B (Homo sapiens, UniProt P41595). It counts as functional, cell-based.
Experiment [5] addresses T3, 5-hydroxytryptamine receptor 2B. Format: functional, cell-based. This is another data set of the same source.
For experiment [6], the target named is 5-hydroxytryptamine receptor 2A (Homo sapiens, UniProt P28223). It counts as functional, cell-based.
Experiment [7] deals with T4, Muscarinic acetylcholine receptor M1 (Homo sapiens, UniProt P11229).
T4 sequence (P11229 whole entry): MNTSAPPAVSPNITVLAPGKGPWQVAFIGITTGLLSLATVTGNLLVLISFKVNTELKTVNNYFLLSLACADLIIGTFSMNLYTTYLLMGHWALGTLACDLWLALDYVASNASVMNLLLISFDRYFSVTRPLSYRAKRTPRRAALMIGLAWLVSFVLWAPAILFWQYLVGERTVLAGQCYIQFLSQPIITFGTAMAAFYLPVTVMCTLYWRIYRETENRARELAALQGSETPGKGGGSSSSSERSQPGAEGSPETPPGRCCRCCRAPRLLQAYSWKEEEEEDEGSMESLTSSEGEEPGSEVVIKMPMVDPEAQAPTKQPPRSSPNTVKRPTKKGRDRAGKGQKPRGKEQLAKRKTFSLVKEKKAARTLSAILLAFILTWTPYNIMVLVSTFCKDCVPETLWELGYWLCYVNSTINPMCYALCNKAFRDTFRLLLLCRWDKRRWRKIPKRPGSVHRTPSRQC
Format: functional.

The target of experiment [8] is T5, Alpha-1A adrenergic receptor (Homo sapiens, UniProt P35348).
T5 sequence (P35348 whole entry): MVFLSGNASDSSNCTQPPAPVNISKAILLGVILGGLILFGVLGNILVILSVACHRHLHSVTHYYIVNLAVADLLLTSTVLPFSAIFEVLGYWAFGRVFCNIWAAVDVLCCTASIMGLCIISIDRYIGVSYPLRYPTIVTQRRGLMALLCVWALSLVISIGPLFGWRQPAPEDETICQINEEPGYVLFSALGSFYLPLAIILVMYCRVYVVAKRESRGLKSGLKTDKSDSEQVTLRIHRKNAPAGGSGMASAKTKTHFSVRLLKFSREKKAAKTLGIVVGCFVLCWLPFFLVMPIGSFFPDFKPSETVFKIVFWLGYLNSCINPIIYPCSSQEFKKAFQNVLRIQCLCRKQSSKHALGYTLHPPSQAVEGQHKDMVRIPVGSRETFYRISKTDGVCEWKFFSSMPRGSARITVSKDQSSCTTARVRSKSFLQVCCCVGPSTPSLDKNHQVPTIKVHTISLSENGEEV
Format: functional, cell-based.

The next experiment has as its target Cannabinoid receptor 1 (Homo sapiens, UniProt P21554). Format: functional, cell-based.
Also: assay procedure not described here.

T3 sequence (P41595 whole entry): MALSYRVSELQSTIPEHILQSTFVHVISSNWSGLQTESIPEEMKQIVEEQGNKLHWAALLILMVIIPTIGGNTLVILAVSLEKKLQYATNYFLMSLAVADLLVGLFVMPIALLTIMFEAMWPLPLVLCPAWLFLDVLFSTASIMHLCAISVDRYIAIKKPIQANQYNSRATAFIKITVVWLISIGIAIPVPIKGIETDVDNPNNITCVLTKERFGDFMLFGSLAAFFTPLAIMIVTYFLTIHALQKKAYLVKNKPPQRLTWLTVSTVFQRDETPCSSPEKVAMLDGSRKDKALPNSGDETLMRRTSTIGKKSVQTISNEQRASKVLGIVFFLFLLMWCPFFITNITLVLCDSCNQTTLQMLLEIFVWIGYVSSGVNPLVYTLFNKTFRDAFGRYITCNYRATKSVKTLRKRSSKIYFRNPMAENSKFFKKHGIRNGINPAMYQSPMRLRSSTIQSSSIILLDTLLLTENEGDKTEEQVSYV
Cannabinoid receptor 1, sequence (P21554 whole entry): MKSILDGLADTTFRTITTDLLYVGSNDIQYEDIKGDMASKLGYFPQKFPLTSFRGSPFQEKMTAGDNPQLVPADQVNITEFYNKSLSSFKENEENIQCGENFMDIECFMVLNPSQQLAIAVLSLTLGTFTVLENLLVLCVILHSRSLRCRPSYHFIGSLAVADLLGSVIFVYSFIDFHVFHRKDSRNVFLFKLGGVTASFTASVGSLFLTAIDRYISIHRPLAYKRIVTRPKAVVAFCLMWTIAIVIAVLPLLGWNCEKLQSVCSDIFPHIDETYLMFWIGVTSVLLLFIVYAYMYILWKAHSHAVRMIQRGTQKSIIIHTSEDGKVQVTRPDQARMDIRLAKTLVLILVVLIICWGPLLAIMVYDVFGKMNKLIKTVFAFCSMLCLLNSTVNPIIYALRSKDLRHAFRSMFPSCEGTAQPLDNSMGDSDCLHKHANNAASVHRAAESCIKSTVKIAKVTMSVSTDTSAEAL
Muscarinic acetylcholine receptor M3, sequence (P20309 whole entry): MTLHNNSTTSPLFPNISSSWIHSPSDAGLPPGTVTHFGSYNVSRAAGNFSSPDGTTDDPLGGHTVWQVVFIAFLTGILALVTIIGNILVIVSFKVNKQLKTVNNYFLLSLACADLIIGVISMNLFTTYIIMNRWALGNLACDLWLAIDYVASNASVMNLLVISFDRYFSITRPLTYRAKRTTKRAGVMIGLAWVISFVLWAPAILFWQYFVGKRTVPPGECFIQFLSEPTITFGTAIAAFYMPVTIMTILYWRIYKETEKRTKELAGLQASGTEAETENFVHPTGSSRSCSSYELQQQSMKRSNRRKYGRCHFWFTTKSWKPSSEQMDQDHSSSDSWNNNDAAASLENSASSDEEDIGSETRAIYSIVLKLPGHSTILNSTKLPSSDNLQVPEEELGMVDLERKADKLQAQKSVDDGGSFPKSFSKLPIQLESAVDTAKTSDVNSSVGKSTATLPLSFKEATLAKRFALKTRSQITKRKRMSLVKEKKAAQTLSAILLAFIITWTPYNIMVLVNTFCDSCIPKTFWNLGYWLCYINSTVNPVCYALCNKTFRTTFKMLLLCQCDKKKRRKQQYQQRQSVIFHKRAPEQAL
Mu-type opioid receptor, sequence (P35372 whole entry): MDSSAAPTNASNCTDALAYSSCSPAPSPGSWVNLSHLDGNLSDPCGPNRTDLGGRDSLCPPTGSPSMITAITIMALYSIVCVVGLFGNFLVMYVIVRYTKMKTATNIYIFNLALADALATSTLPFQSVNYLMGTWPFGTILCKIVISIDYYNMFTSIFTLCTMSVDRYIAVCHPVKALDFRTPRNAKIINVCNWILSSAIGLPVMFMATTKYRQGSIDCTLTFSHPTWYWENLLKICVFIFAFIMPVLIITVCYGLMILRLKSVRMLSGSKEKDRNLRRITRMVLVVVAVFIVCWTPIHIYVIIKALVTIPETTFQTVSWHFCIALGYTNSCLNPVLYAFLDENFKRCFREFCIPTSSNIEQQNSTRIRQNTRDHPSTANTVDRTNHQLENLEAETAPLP
5-hydroxytryptamine receptor 2A, sequence (P28223 whole entry): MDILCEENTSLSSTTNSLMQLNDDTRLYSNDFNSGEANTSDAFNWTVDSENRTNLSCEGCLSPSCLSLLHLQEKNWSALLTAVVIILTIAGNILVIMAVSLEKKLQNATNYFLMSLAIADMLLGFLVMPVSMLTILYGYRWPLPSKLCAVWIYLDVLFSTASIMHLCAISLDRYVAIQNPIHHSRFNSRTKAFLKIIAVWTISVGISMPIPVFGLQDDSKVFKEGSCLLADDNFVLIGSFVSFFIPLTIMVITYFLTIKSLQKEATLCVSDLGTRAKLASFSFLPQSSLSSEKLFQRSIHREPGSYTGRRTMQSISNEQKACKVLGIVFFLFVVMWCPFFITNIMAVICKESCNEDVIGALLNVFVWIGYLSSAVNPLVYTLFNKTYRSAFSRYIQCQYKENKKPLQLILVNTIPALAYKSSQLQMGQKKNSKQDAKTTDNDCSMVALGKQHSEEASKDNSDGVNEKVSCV
Kappa-type opioid receptor, sequence (P41145 whole entry): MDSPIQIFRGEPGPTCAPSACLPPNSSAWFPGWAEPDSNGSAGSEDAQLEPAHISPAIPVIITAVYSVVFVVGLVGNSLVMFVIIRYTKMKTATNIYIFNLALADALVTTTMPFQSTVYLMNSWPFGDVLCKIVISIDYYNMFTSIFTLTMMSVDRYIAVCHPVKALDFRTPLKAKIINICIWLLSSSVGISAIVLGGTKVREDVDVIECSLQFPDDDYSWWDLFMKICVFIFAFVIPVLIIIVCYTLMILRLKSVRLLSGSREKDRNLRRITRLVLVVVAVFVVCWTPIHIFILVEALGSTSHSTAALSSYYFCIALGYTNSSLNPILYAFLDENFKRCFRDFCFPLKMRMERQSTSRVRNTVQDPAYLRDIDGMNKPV

As usually defined, the AC50 is the midpoint of the concentration-response curve, whichever way the signal moves. Take `C=CCNc1nc(NCC=C)nc(N2CCN(C(c3ccc(F)cc3)c3ccc(F)cc3)CC2)n1` [ALMITRINE]: the AC50 in experiment [1] is over 30 µM; at Mu-type opioid receptor, over 30 µM; on Endothelin-1 receptor, over 30 µM; in [2] it was 18 µM; in [3], over 30 µM; in [4], over 30 µM. For the same molecule, the concentration at half-maximal activity (AC50) in experiment [5], in experiment [6] and in experiment [7] was over 30 µM each time.

For `CC(C)COCC(CN(Cc1ccccc1)c1ccccc1)N1CCCC1` (stereo unspecified) [BEPRIDIL], the AC50 in experiment [1] is over 30 µM; at Mu-type opioid receptor, 17 µM; at Endothelin-1 receptor, over 30 µM; in experiment [3], 17 µM; in experiment [4], over 30 µM; in experiment [5], 28 µM. In addition, the AC50 in [6] was found to be 22 µM; in [7] it was 23 µM.

Take `CC1OC2(CS1)CN1CCC2CC1` (stereo unspecified) [CEVIMELINE]: the concentration at half-maximal activity (AC50) in [8] is over 30 µM; on Mu-type opioid receptor, over 30 µM; in [2], over 10 µM; in experiment [3], over 30 µM; in experiment [4] it was over 10 µM; in experiment [5] it was over 10 µM. In addition, the AC50 in [6] was over 10 µM; in experiment [7] it was over 30 µM.

For the molecule `Nc1ncn([C@H]2C[C@H](O)[C@@H](CO)O2)c(=O)n1` [DECITABINE], the AC50 (in [1]; on Mu-type opioid receptor; in experiment [2]; in experiment [3]; in experiment [4]; in experiment [5]) was over 30 µM in each case. The AC50 in experiment [6] and in [7] was over 30 µM throughout.

`CCC1(c2ccccc2)CCC(=O)NC1=O` (stereo unspecified) [GLUTETHIMIDE]: the half-maximal activity concentration (AC50) was over 30 µM in experiment [8]; over 10 µM in experiment [2]; over 30 µM in experiment [3]; over 10 µM in experiment [4]; over 10 µM in experiment [5]; over 30 µM in experiment [6]. The AC50 is over 30 µM on Cannabinoid receptor 1 and over 10 µM in experiment [7].

In the case of `C[C@H](Cc1ccc(O)c(O)c1)[C@@H](C)Cc1ccc(O)c(O)c1` [MASOPROCOL], the AC50 is over 30 µM in experiment [8]; 15 µM in experiment [2]; over 30 µM in [3]; over 10 µM in experiment [4]; 11 µM in experiment [5]; 13 µM and > 30 µM and 21 µM in experiment [6]. Besides, the AC50 on Cannabinoid receptor 1 is over 30 µM; in [7] it was > 10 µM and 29 µM and > 30 µM.

With `C#C[C@]1(OC(C)=O)CC[C@H]2[C@@H]3CCC4=C/C(=N/O)CC[C@@H]4[C@H]3CC[C@@]21CC` [NORGESTIMATE], the half-maximal activity concentration (AC50) (in [1]; in experiment [8]; on Mu-type opioid receptor; on Endothelin-1 receptor; in experiment [2]; in experiment [4]) was over 30 µM in each case. The AC50 (in experiment [5]; in experiment [6]; at Cannabinoid receptor 1; in experiment [7]) was over 30 µM each time.

Turning to `Clc1ccc(C(Cn2ccnc2)OCc2ccsc2Cl)c(Cl)c1` (stereo unspecified) [TIOCONAZOLE], the AC50 is over 30 µM in [1]; over 30 µM in experiment [8]; over 30 µM at Mu-type opioid receptor; 1.8 µM in [2]; 26 µM in experiment [3]; over 30 µM in experiment [4]. Moreover, the AC50 in experiment [5] was over 30 µM; in [6] it was 19 µM; in experiment [7], over 30 µM.

As to `CC(C)[C@H](N)C(=O)OCC(CO)OCn1cnc2c(=O)nc(N)[nH]c21` (stereo partly specified) [VALGANCICLOVIR], the AC50 (in [1]; at Mu-type opioid receptor; in experiment [2]; in experiment [3]; in experiment [4]; in experiment [5]) was over 30 µM in each case. Further, the AC50 in [6] and in experiment [7] was over 30 µM each time.
